Holding throughout (format): cell-based
In one test the test system is BHK-21 cells. Put plainly: Anti-fibrosis activity test: inhibition of BHK-21 cell proliferation (CCK-8). To be noted: Mesocricetus auratus, BHK-21, 48 h, CCK-8, 48 hours after administration. The method in brief: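 Each concentration was tested in triplicate on adhered BHK-21 cells for 48 h, with pirfenidone as reference. A 2 h CCK-8 incubation preceded absorbance reading at 450 nm, and IC50 was obtained from percent inhibition versus blank.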

The test system of test [1] is human lung fibroblasts HFL1. Put plainly: Anti-fibrosis activity test: inhibition of proliferation of human lung fibroblasts HFL1 (CCK-8). To be noted: Homo sapiens, HFL1, 48 h, human lung fibroblasts HFL1, CCK-8, 48 hours. The method in brief: (§1)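 Cells seeded at 2×10^4 cells/mL, adhered 24 h, then exposed to compound concentrations in triplicate for 48 h at 37° C, 5% CO2. CCK-8 added for 2 h, absorbance at 450 nm; inhibition = (1−Ai/Ao)×100% versus blank control, IC50 calculated.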

Test [2] concerns human hepatic stellate cells LX-2. Kind of test: Anti-fibrosis activity test: inhibition of proliferation of human hepatic stellate cells LX-2 (CCK-8). To be noted: Homo sapiens, 48 h, human hepatic stellate cells LX-2, CCK-8, 48 hours. The method in brief: as §1
Test [3] concerns human fibrosarcoma cells HT-1080. Put plainly: Anti-fibrosis activity test: inhibition of proliferation of human fibrosarcoma cells HT-1080 (CCK-8). To be noted: Homo sapiens, HT-1080, 48 h, human fibrosarcoma cells HT-1080, CCK-8, 48 hours. The method in brief: as §1
Test [4] relates to human dermal fibroblasts CCC-ESF-1. Put plainly: Anti-fibrosis activity test: inhibition of proliferation of human dermal fibroblasts CCC-ESF-1 (CCK-8). To be noted: Fibroblast; human dermal fibroblasts CCC-ESF-1, CCK-8, 48 hours. In outline:
as §1

Test [5] relates to human embryonic lung fibroblast IMR-90. Kind of test: Anti-fibrosis activity test: inhibition of proliferation of human embryonic lung fibroblast IMR-90 (CCK-8). To be noted: human embryonic lung fibroblast IMR-90, CCK-8, 48 hours. The method in brief:
as §1

Test [6] concerns cardiac fibroblast RAT-iCell-C002. Put plainly: Anti-fibrosis activity test: inhibition of proliferation of cardiac fibroblast RAT-iCell-C002 (CCK-8). To be noted: Cardiac fibroblast, 48 h, cardiac fibroblast RAT-iCell-C002, CCK-8, 48 hours. In outline:
as §1

In test [7] the test system is mouse macrophages (RAW264.7). Put plainly: Lipopolysaccharide-induced NO secretion in macrophages (Griess). To be noted: Mus musculus, RAW264.7, 24 h, RAW264.7, LPS 1 μg/ml, a/b isomers given as first/second symbol, read-out: IC50 (μM), inhibition of lipopolysaccharide-induced NO secretion in macrophages. The method in brief: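 RAW264.7 macrophages in DMEM with 10% FBS received test samples at several concentrations and were stimulated with 1 μg/ml LPS for 24 h. NO in the supernatant was measured with the Griess reagent at 548 nm, […].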
(In general: Griess reagent forms a coloured azo dye with nitrite.)

Take `O=C1c2c(nc3c(F)cccc3c2OCc2ccc(Cl)cc2)-c2cccn21` [Compound 453b, 9-((4-chlorobenzyl)oxy)-5-fluoro-10H-pyrrolizino[1,2-b]quinolin-10-one]: the IC50 (with BHK-21 cells; in test [1]; in test [2]; in test [3]; in test [4]; in test [5]) was 0.05 to 5 mM each time. The IC50 (usually the point on the concentration scale where inhibition reaches its midpoint) in test [6] lay within 0.05 to 5 mM; in test [7], 10 to 50 µM.

`N#Cc1cccc2c(=O)c3c(n(Cc4cccc(F)c4)c12)-c1cccn1C3=O` [Compound 454a, 4-(3-Fluorobenzyl)-9,10-dioxo-4,10-dihydro-9H-pyrrolizino[1,2-b]quinoline-5-carbonitrile]: the IC50 (in the test with BHK-21 cells; in test [1]; in test [2]; in test [3]; in test [4]; in test [5]) was 0.05 to 5 mM in each case. Further, the IC50 is 0.05 to 5 mM in test [6] and 0.1 to 1 µM in test [7].

Take `N#Cc1cccc2c(OCc3cccc(F)c3)c3c(nc12)-c1cccn1C3=O` [Compound 454b, 9-((3-fluorobenzyl)oxy)-10-oxo-10H-pyrrolizino[1,2-b]quinoline-5-carbonitrile]: the IC50 (with BHK-21 cells; in test [1]; in test [2]; in test [3]; in test [4]; in test [5]) was 0.05 to 5 mM each time. The IC50 in test [6] lay in the range of 0.05 to 5 mM; in test [7], 1 to 10 µM.

Regarding `O=C1c2c(n(Cc3cccc(Cl)c3)c3c(C(F)(F)F)cccc3c2=O)-c2cccn21` [Compound 455a, 4-(3-Chlorobenzyl)-5-(trifluoromethyl)-9H-pyrrolizino[1,2-b]quinoline-9,10(4H)-dione], the IC50 is 0.05 to 5 mM with BHK-21 cells; 5 to 20 mM in test [1]; 0.05 to 5 mM in test [2]; 0.05 to 5 mM in test [3]; 0.05 to 5 mM in test [4]; 5 to 20 mM in test [5]. Moreover, the results for the IC50 in test [6] and in test [7] were 0.05 to 5 mM and 1 to 10 µM, respectively.

Turning to `O=C1c2c(nc3c(C(F)(F)F)cccc3c2OCc2cccc(Cl)c2)-c2cccn21` [Compound 455b, 9-((3-chlorobenzyl)oxy)-5-(trifluoromethyl)-10H-pyrrolizino[1,2-b]quinolin-10-one], the IC50 in the test on BHK-21 cells fell in the range of 0.05 to 5 mM; in test [1], 5 to 20 mM; in test [2] it was 0.05 to 5 mM; in test [3], 0.05 to 5 mM; in test [4] it was 0.05 to 5 mM; in test [5], 0.05 to 5 mM. The figures for the IC50 in test [6] and in test [7] were 0.05 to 5 mM and 1 to 10 µM, respectively.

For `N#Cc1cccc2c(=O)c3c(n(Cc4ccccc4F)c12)-c1cccn1C3=O` [Compound 456a, 4-(2-Fluorobenzyl)-9,10-dioxo-4,10-dihydro-9H-pyrrolizino[1,2-b]quinoline-5-carbonitrile], the IC50 was 0.05 to 5 mM in the test on BHK-21 cells; 0.05 to 5 mM in test [1]; < 0.05 mM in test [2]; 0.05 to 5 mM in test [3]; 0.05 to 5 mM in test [4]; 0.05 to 5 mM in test [5]. Besides, the figures for the IC50 in test [6] and in test [7] were 0.05 to 5 mM and 1 to 10 µM, respectively.

Take `N#Cc1cccc2c(OCc3ccccc3F)c3c(nc12)-c1cccn1C3=O` [Compound 456b, 9-((2-fluorobenzyl)oxy)-10-oxo-10H-pyrrolizino[1,2-b]quinoline-5-carbonitrile]: the IC50 (with BHK-21 cells; in test [1]; in test [2]; in test [3]; in test [4]; in test [5]) was 0.05 to 5 mM in each case. Besides, the IC50 was in the range of 0.05 to 5 mM in test [6] and 1 to 10 µM in test [7].

In the case of `O=C1c2c(n(Cc3ccccc3Cl)c3c(C(F)(F)F)cccc3c2=O)-c2cccn21` [Compound 457a, 4-(2-Chlorobenzyl)-5-(trifluoromethyl)-9H-pyrrolizino[1,2-b]quinoline-9,10(4H)-dione], the IC50 in the test on BHK-21 cells is 0.05 to 5 mM; in test [1], 0.05 to 5 mM; in test [2] it was < 0.05 mM; in test [3], 0.05 to 5 mM; in test [4], 0.05 to 5 mM; in test [5], 0.05 to 5 mM. Also, the IC50 lay within 0.05 to 5 mM in test [6] and 1 to 10 µM in test [7].

In the case of `O=C1c2c(nc3c(C(F)(F)F)cccc3c2OCc2ccccc2Cl)-c2cccn21` [Compound 457b, 9-((2-chlorobenzyl)oxy)-5-(trifluoromethyl)-10H-pyrrolizino[1,2-b]quinolin-10-one], the IC50 (in the test on BHK-21 cells; in test [1]; in test [2]; in test [3]; in test [4]; in test [5]) was 0.05 to 5 mM each time. Besides, the IC50 fell in the range of 0.05 to 5 mM in test [6] and 1 to 10 µM in test [7].

As for `O=C1c2c(n(Cc3cccc(Cl)c3)c3c(Cl)cccc3c2=O)-c2cccn21` [Compound 459a, 5-Chloro-4-(3-chlorobenzyl)-9H-pyrrolizino[1,2-b]quinoline-9,10(4H)-dione], the IC50 in the test on BHK-21 cells was 0.05 to 5 mM; in test [1], 0.05 to 5 mM; in test [2], 0.05 to 5 mM; in test [3], 5 to 20 mM; in test [4], 0.05 to 5 mM; in test [5], 0.05 to 5 mM. For the same compound, the IC50 in test [6] lay in the range of 0.05 to 5 mM; in test [7], 1 to 10 µM.

In the case of `O=C1c2c(nc3c(Cl)cccc3c2OCc2cccc(Cl)c2)-c2cccn21` [Compound 459b, 5-chloro-9-((3-chlorobenzyl)oxy)-10H-pyrrolizino[1,2-b]quinolin-10-one], the IC50 lay within 0.05 to 5 mM with BHK-21 cells; 0.05 to 5 mM in test [1]; 0.05 to 5 mM in test [2]; 5 to 20 mM in test [3]; 0.05 to 5 mM in test [4]; 0.05 to 5 mM in test [5]. The IC50 in test [6] was 0.05 to 5 mM; in test [7], 1 to 10 µM.

As to `O=C1c2c(n(Cc3ccccc3F)c3c(Cl)cccc3c2=O)-c2cccn21` [Compound 460a, 5-Chloro-4-(2-fluorobenzyl)-9H-pyrrolizino[1,2-b]quinoline-9,10(4H)-dione], the IC50 in the test with BHK-21 cells was < 0.05 mM; in test [1] it was < 0.05 mM; in test [2], 0.05 to 5 mM; in test [3] it was 0.05 to 5 mM; in test [4], 0.05 to 5 mM; in test [5], 0.05 to 5 mM. Besides, the IC50 in test [6] was in the range of 0.05 to 5 mM; in test [7], 0.1 to 1 µM.

`O=C1c2c(nc3c(Cl)cccc3c2OCc2ccccc2F)-c2cccn21` [Compound 460b, 5-chloro-9-((2-fluorobenzyl)oxy)-10H-pyrrolizino[1,2-b]quinolin-10-one]: the IC50 (in the test with BHK-21 cells; in test [1]; in test [2]; in test [3]; in test [4]; in test [5]) was 0.05 to 5 mM each time. For the same compound, the IC50 in test [6] was 0.05 to 5 mM; in test [7] it was 10 to 50 µM.

As to `O=C1c2c(n(Cc3ccccc3Cl)c3c(Cl)cccc3c2=O)-c2cccn21` [Compound 461a, 5-Chloro-4-(2-chlorobenzyl)-9H-pyrrolizino[1,2-b]quinoline-9,10(4H)-dione], the IC50 is < 0.05 mM with BHK-21 cells; 0.05 to 5 mM in test [1]; < 0.05 mM in test [2]; 0.05 to 5 mM in test [3]; 0.05 to 5 mM in test [4]; 0.05 to 5 mM in test [5]. The IC50 in test [6] lay within 0.05 to 5 mM; in test [7] it was 1 to 10 µM.

With `O=C1c2c(nc3c(Cl)cccc3c2OCc2ccccc2Cl)-c2cccn21` [Compound 461b, 5-chloro-9-((2-chlorobenzyl)oxy)-10H-pyrrolizino[1,2-b]quinolin-10-one], the IC50 (in the test with BHK-21 cells; in test [1]; in test [2]; in test [3]; in test [4]; in test [5]) was 0.05 to 5 mM in each case. For the same compound, the IC50 fell in the range of 0.05 to 5 mM in test [6] and 1 to 10 µM in test [7].

In the case of `N#Cc1cccc2c1c(=O)c1c(n2Cc2cccc(F)c2)-c2cccn2C1=O` [Compound 463a, 4-(3-Fluorobenzyl)-9,10-dioxo-4,10-dihydro-9H-pyrrolizino[1,2-b]quinoline-8-carbonitrile], the IC50 with BHK-21 cells was in the range of 0.05 to 5 mM; in test [1], 0.05 to 5 mM; in test [2], 0.05 to 5 mM; in test [3], 5 to 20 mM; in test [4] it was 0.05 to 5 mM; in test [5] it was 0.05 to 5 mM. Moreover, the IC50 in test [6] lay within 0.05 to 5 mM; in test [7] it was 1 to 10 µM.

The values above are taken from patent US11040028B2, “Penicinotam derivative, preparation method and use thereof” (OCEAN UNIVERSITY OF CHINA, priority 2017, dated 2021).
